Values after ≈ are worked out from the molar mass of the structure shown. Active and inactive are the calls of the source. The rule behind the calls is not given here.
Experiments:
[1] = tested on: Staphylococcus aureus; experiment: Antibacterial activity against methicillin-resistant Staphylococcus aureus ATCC43300 assessed as bacterial growth inhibition incubated for 18 to 24 hrs by microbroth dilution method; format: functional; conditions: time 18-24 hrs
[2] = tested on: Bacillus subtilis; experiment: Antibacterial activity against Bacillus subtilis BNCC336690 assessed as bacterial growth inhibition incubated for 18 to 24 hrs by microbroth dilution method; format: functional; conditions: time 18-24 hrs
[3] = tested on: Streptococcus pneumoniae; experiment: Antibacterial activity against Streptococcus pneumoniae ATCC49619 assessed as bacterial growth inhibition incubated for 18 to 24 hrs by microbroth dilution method; format: functional; conditions: time 18-24 hrs
[4] = tested on: Escherichia coli; experiment: Antibacterial activity against penicillin-susceptible Escherichia coli ATCC25922 assessed as bacterial growth inhibition incubated for 18 to 24 hrs by microbroth dilution method; format: functional; conditions: time 18-24 hrs
[5] = tested on: Staphylococcus aureus; experiment: Antibacterial activity against methicillin-resistant Staphylococcus aureus ATCC43300 assessed as filamentation on cell surface at 4 times MIC incubated for 2 hrs by SEM analysis; format: functional, organism-based
[6] = tested on: Staphylococcus aureus; experiment: Antibacterial activity against methicillin-resistant Staphylococcus aureus ATCC43300 assessed as log10 CFU reduction at MIC measured for 1 hr by time-killing assay; format: functional
[7] = tested on: Staphylococcus aureus; experiment: Antibacterial activity against methicillin-resistant Staphylococcus aureus ATCC43300 assessed as log10 CFU reduction at 2 to 4 times MIC measured for 0.5 hrs by time-killing assay; format: functional
[8] = tested on: Staphylococcus aureus; experiment: Antibacterial activity against drug-resistant Staphylococcus aureus ATCC43300 assessed as inhibition of resistance development at 0.5 times MIC after 25 passages incubated for 18 to 24 hrs by microbroth dilution method; format: functional, organism-based; conditions: time 18-24 hrs
[9] = tested on: Staphylococcus aureus; experiment: Antibacterial activity against methicillin-resistant Staphylococcus aureus ATCC43300 assessed as wrinkling cell surface at 4 times MIC incubated for 2 hrs by SEM analysis; format: functional, organism-based
[10] = tested on: Bacillus subtilis; experiment: Antibacterial activity against Bacillus subtilis BNCC336690 assessed as increase in cell length at 0.5 times MIC incubated for 4 hrs by microscopic analysis; format: functional, organism-based
[11] = target: T1, Cell division protein FtsZ (Escherichia coli K-12) (UniProt P0A9A6); experiment: Inhibition of recombinant Escherichia coli FtsZ expressed in Escherichia coli BL21 assessed as induction of FtsZ polymerization incubated for 10 mins by light scattering assay; conditions: dose 1-4 µg/ml
T1 sequence (whole entry): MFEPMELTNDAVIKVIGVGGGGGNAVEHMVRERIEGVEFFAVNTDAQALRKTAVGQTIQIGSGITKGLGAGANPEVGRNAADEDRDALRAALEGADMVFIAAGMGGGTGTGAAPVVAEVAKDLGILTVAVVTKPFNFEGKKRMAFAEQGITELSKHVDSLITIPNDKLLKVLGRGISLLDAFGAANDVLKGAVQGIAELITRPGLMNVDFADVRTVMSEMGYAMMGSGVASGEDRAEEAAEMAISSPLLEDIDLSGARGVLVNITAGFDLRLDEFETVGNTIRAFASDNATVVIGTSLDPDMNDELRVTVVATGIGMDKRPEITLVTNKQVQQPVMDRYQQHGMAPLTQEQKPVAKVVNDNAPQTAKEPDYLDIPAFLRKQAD

[12] = target: T1, Cell division protein FtsZ (Escherichia coli K-12); experiment: Inhibition of recombinant Escherichia coli FtsZ expressed in Escherichia coli BL21 assessed as bundling of FtsZ filaments at 4 ug/ml incubated for 10 mins by TEM analysis; conditions: dose 4.0 µg/ml
[13] = target: T1, Cell division protein FtsZ (Escherichia coli K-12); experiment: Inhibition of recombinant Escherichia coli FtsZ expressed in Escherichia coli BL21 assessed as reduction in GTPase activity incubated for 30 mins by malachite green phosphate staining based assay; conditions: dose 0.02-0.64 µg/ml
[14] = Hemolytic activity in human erythrocytes assessed as release of hemoglobin level at 12.5 ug/ml incubated for 1 hr by absorbance based assay relative to control; format: toxicity, cell-based, Erythrocyte; conditions: at 12.5 µg/mL, read-out: Activity
[15] = Cytotoxicity against mouse RAW264.7 cells assessed as cell survival at 12.5 ug/ml incubated for 24 hrs by CCK8 assay relative to control; format: toxicity, cell-based; conditions: at 12.5 µg/mL, read-out: Activity
[16] = Cytotoxicity against mouse RAW264.7 cells assessed as cell survival at 25 ug/ml incubated for 24 hrs by CCK8 assay relative to control; format: toxicity, cell-based; conditions: at 25 µg/mL, read-out: Activity
[17] = Cytotoxicity against mouse RAW264.7 cells assessed as cell survival at 50 ug/ml incubated for 24 hrs by CCK8 assay relative to control; format: toxicity, cell-based; conditions: at 50 µg/mL, read-out: Activity
[18] = tested on: RAW264.7; experiment: Cytotoxicity against mouse RAW264.7 cells >12.5 ug/ml incubated for 24 hrs by CCK8 assay; format: toxicity, cell-based; conditions: raw264.7, 24 h, dose > 12.5 µg/ml
[19] = tested on: Staphylococcus aureus; experiment: Antibacterial activity against methicillin-resistant Staphylococcus aureus ATCC43300 assessed as log10 CFU reduction at 1 to 4 times MIC measured after 4 hrs by time-killing assay; format: functional
[20] = target: T1, Cell division protein FtsZ (Escherichia coli K-12); experiment: Inhibition of recombinant Escherichia coli FtsZ expressed in Escherichia coli BL21 assessed as reduction in GTPase activity at 0.32 ug/ml incubated for 30 mins by malachite green phosphate staining based assay relative to control; conditions: dose 0.32 µg/ml
[21] = target: T1, Cell division protein FtsZ (Escherichia coli K-12); experiment: Inhibition of recombinant Escherichia coli FtsZ expressed in Escherichia coli BL21 assessed as induction of FtsZ polymerization at 4 ug/ml incubated for 10 mins by light scattering assay; conditions: dose 4.0 µg/ml
[22] = tested on: Staphylococcus aureus; experiment: Antibacterial activity against methicillin-resistant Staphylococcus aureus ATCC43300 assessed as bacterial count reduction at 2 times MIC measured after 10 hrs by time-killing assay; format: functional, organism-based

| SMILES | MIC [1] [µg/mL] | MIC [2] [µg/mL] | MIC [3] [µg/mL] | MIC [4] [µg/mL] | other results |
| --- | --- | --- | --- | --- | --- |
| CCCCCCNC(=O)c1ccc2[nH]c3c4[n+](ccc3c2c1)-c1ccccc1C4=O.[Br-] | 0.39 | 0.39 | 0.39 | > 200 |  |
| O=C(Nc1ccccc1)c1ccc2[nH]c3c4[n+](ccc3c2c1)-c1ccccc1C4=O.[Br-] | 12.5 | 6.25 | 6.25 | > 200 |  |
| O=C(O)c1cn(C2CC2)c2cc(N3CCNCC3)c(F)cc2c1=O [CIPROFLOXACIN] | 0.78 (≈ 2.35 µM) | 0.195 (≈ 0.589 µM) | 0.195 (≈ 0.589 µM) | 0.195 (≈ 0.589 µM) |  |
| CC(C)c1ccc(NC(=O)c2ccc3[nH]c4c5[n+](ccc4c3c2)-c2ccccc2C5=O)cc1.[Br-] | 0.195 | 0.049 | 0.049 | > 200 |  |
| CCCCc1ccc(NC(=O)c2ccc3[nH]c4c5[n+](ccc4c3c2)-c2ccccc2C5=O)cc1.[Br-] | 3.12 | 0.049 | 0.78 | > 200 |  |
| CC(C)c1ccccc1NC(=O)c1ccc2[nH]c3c4[n+](ccc3c2c1)-c1ccccc1C4=O.[Br-] | 12.5 | 6.25 | 50 | > 200 |  |
| COc1ccccc1NC(=O)c1ccc2[nH]c3c4[n+](ccc3c2c1)-c1ccccc1C4=O.[Br-] | 0.049 | 0.024 | 0.049 | > 200 | Activity [5]: Active; Activity [6]: 2 log10CFU/ml; Activity [7]: 2 log10CFU/ml; inhibition [8]: inactive; Activity [9]: Active; Activity [10]: Active; inhibition [11]: Dose-Dependent Effect; inhibition [12]: Active; inhibition [13]: Dose-Dependent Effect; hemolysis at 1 h, 12.5 ug/ml [14]: 0%; viability at 24 h, 12.5 ug/ml [15]: 14.6%; viability at 24 h, 25 ug/ml [16]: 12.8%; viability at 24 h, 50 ug/ml [17]: 13.2%; Activity [18]: Toxic |
| Cc1ccccc1NC(=O)c1ccc2[nH]c3c4[n+](ccc3c2c1)-c1ccccc1C4=O.[Br-] | 25 | 12.5 | 50 | > 200 |  |
| COc1ccc(NC(=O)c2ccc3[nH]c4c5[n+](ccc4c3c2)-c2ccccc2C5=O)cc1.[Br-] | 0.39 | 0.39 | 0.39 | > 200 |  |
| COc1cccc(NC(=O)c2ccc3[nH]c4c5[n+](ccc4c3c2)-c2ccccc2C5=O)c1.[Br-] | 0.39 | 0.195 | 0.39 | > 200 |  |
| CC(C)c1cccc(NC(=O)c2ccc3[nH]c4c5[n+](ccc4c3c2)-c2ccccc2C5=O)c1.[Br-] | 0.098 | 0.098 | 0.049 | > 200 | Activity [5]: Active; Activity [19]: 2 log10CFU/ml; inhibition [8]: inactive; Activity [9]: Active; Activity [10]: Active; inhibition [11]: Dose-Dependent Effect; inhibition [12]: Active; inhibition [13]: Dose-Dependent Effect; inhibition [20]: 40%; hemolysis at 1 h, 12.5 ug/ml [14]: 0%; viability at 24 h, 12.5 ug/ml [15]: 98.8%; viability at 24 h, 25 ug/ml [16]: 100%; viability at 24 h, 50 ug/ml [17]: 98.2% |
| CCCCCCCCc1ccc(NC(=O)c2ccc3[nH]c4c5[n+](ccc4c3c2)-c2ccccc2C5=O)cc1.[Br-] | 25 | 25 | 25 | > 200 |  |
| CCCCCCc1ccc(NC(=O)c2ccc3[nH]c4c5[n+](ccc4c3c2)-c2ccccc2C5=O)cc1.[Br-] | 25 | 0.78 | 6.25 | > 200 |  |
| Cc1ccc(NC(=O)c2ccc3[nH]c4c5[n+](ccc4c3c2)-c2ccccc2C5=O)cc1.[Br-] | 0.78 | 0.195 | 0.39 | > 200 |  |
| O=C(NC1CCCCC1)c1ccc2[nH]c3c4[n+](ccc3c2c1)-c1ccccc1C4=O.[Br-] | 0.78 | 0.78 | 0.78 | > 200 |  |
| Cc1cccc(NC(=O)c2ccc3[nH]c4c5[n+](ccc4c3c2)-c2ccccc2C5=O)c1.[Br-] | 0.098 | 0.049 | 0.098 | > 200 | Activity [5]: Active; Activity [19]: 2 log10CFU/ml; inhibition [8]: inactive; Activity [9]: Active; inhibition [21]: Active; Activity [10]: Active; inhibition [11]: Dose-Dependent Effect; inhibition [12]: Active; inhibition [13]: Dose-Dependent Effect; hemolysis at 1 h, 12.5 ug/ml [14]: 0%; viability at 24 h, 12.5 ug/ml [15]: 104%; viability at 24 h, 25 ug/ml [16]: 106%; viability at 24 h, 50 ug/ml [17]: 101% |
| CCCCNC(=O)c1ccc2[nH]c3c4[n+](ccc3c2c1)-c1ccccc1C4=O.[Br-] | 6.25 | 3.12 | 3.12 | > 200 |  |
| CN[C@H](CC(C)C)C(=O)N[C@H]1C(=O)N[C@@H](CC(N)=O)C(=O)N[C@H]2C(=O)N[C@H]3C(=O)N[C@H](C(=O)N[C@H](C(=O)O)c4cc(O)cc(O)c4-c4cc3ccc4O)[C@H](O)c3ccc(c(Cl)c3)Oc3cc2cc(c3O[C@@H]2O[C@H](CO)[C@@H](O)[C@H](O)[C@H]2O[C@H]2C[C@](C)(N)[C@H](O)[C@H](C)O2)Oc2ccc(cc2Cl)[C@H]1O [VANCOMYCIN] |  |  |  | > 200 | Activity [22]: inactive |

— ChEMBL document CHEMBL5325422, “Design and synthesis of fascaplysin derivatives as inhibitors of FtsZ with potent antibacterial activity and mechanistic study” (Eur J Med Chem, 2023)
